From patent US9850276B2, “Bidentate-binding modulators of LRRK2 and JNK kinases” (THE SCRIPPS RESEARCH INSTITUTE, priority 2013, dated 2017)

Key:
[1] = system: cardiomyocyte apoptosis and infarct size; settings: rats; cited from earlier work
H9c2 cells [2] = assay: ROS generation under H2O2 oxidative stress; assay type: cell-based; settings: 25 μM H2O2 + 500 nM SR-3306
Description: (§1) To test whether JNK mitochondrial localization had effects on mitochondrial function we measured the impact of Tat-Sab, and a small molecule JNK inhibitor, SR-3306 (commercially available from Calbiochem), on ROS generation and mitochondrial membrane depolarization in H9c2 cells treated with H2O2. The ROS fluorescence/cell in the absence of oxidative stress (PBS), was compared to treatment with either 25 μM H2O2, or 25 μM H2O2+500 nM SR-3306, or 25 μM H2O2+3 μM Tat-scramble peptide, or 25 μM H2O2+3 μM Tat-Sab peptide.

H9c2 cells [3] = assay: Cell viability under oxidative stress (Cell-Titer Glo luminescent assay); assay type: cell-based; settings: 25 μM H2O2 + 500 nM SR-3306
Description: (§2) A similar effect was seen when mitochondrial membrane potential was measured by Rhodamine 123 detection. […] Similarly, both ROS generation and membrane depolarization effects elicited by oxidative stress in H92c cells were blocked by inhibition of JNK with the small molecule, SR-3306 (commercially available from Calbiochem). Finally, the effect of SR-3306 or Tat-Sab on cell viability in response to oxidative stress was measured by a Cell-Titer Glo luminescent assay. H9c2 cells treated with 25 μM H2O2 were ˜40% viable, whereas addition of 500 nM SR-3306 to cells treated with 25 μM H2O2 increased viability to ˜80%, and addition of 3 μM Tat-Sab peptide to cells treated with 25 μM H2O2 increased viability to ˜65% compared to 95% viable in untreated cells.

H9c2 cells [4] = assay: Mitochondrial membrane potential under H2O2 (Rhodamine 123 detection); assay type: cell-based; settings: 25 μM H2O2
Description: as §1, §2

[5] = system: infarct size in rat hearts; assay: I/R MI rat model, 30 minutes ischemia and 24 hours reperfusion; assay type: in vivo; settings: 5 mg/kg SR-3306; anesthetized rats; p<0.05
Description: The in vivo efficacy of SR-3306 in anesthetized rats after 30 minutes ischemia and 24 hours reperfusion was evaluated.

Row | SMILES | cardiomyocyte apoptosis and infarct size after I/R [1] | reduction of ROS generation compared to 25 μM H2O2 treatment (H9c2 cells [2]) [fold] | cell viability (H9c2 cells [3]) [%] | mitochondrial membrane potential perturbation / depolarization (H9c2 cells [4]) | infarct size (IS) [5]
1 | N#CC(c1ccnc(NCCc2cccnc2)n1)c1nc2ccccc2s1 (centres unmarked) [AS601245] | decreased cardiomyocyte apoptosis and infarct size | – | – | – | –
2 | Cc1ccc(-c2ncn(-c3ccc(Nc4nccc(-c5cccc(N6CCOCC6)c5)n4)cc3)n2)cn1 [SR-3306] | – | ~2 | ~80 | blocked | 23±3.5 % of AAR
